29 molecules from patent US5574043A, “Certain [1,2,5-thiadiazol-4-yl]-1-azabicyclo [3.2.1]octane derivatives and their pharmaceutical uses” (Novo Nordisk A/S, priority 1995, dated 1996) can be followed below.

Where a name gives a salt, the structure may show the parent alone.

The target in the first assay is muscarinic acetylcholine receptors. In words: Inhibition of specific binding of 3H-Oxotremorine-M (OXO BINDING) in vitro, rat cortex. Further details: species or system male Wistar rats. The note with it: rat cortex homogenate, 3H-Oxotremorine 1.0 nM, 30 min at 25° C., pH 7.4. An excerpt:
The pharmacological properties of the compounds of the invention can be illustrated by determining their capability to inhibit the specific binding of ^3 H-Oxotremorine-M (^3 H-Oxo). Birdsdall N. J. M., Hulme E. C., and Burgen A. S. V. (1980). "The Character of Muscarinic Receptors in Different Regions of the Rat Brain". Proc. Roy. Soc. London (Series B) 207,1.
^3 H-Oxo labels muscarinic receptor in the CNS (with a preference for agonist domains of the receptors). Three different sites are labelled by ^3 H-Oxo. […] Using the present experimental conditions only the high and medium affinity sites are determined.
The inhibitory effects of compounds on ^3 H-Oxo binding reflects the affinity for muscarinic acetylcholine receptors.
All preparations are performed at 0°-4° C. unless otherwise indicated. Fresh cortex (0.1-1 g) from male Wistar rats (150-250 g) is homogenized for 5-10 s in 10 ml 20 mM Hepes pH: 7.4, with an Ultra-Turrax homogenizer. The homogenizer, is rinsed with 10 ml of buffer and the combined suspension centrifuged for 15 min at 40,000×g. The pellet is washed three times with buffer. In each step the pellet is homogenized as before in 2×10 ml of buffer and centrifuged for 10 min at 40,000×g.
The final pellet is homogenized in 20 mM Hepes pH: 7.4 (100 ml per g of original tissue) and used for binding assay. Aliquots of 0.5 ml is added 25 μl of test solution and 25 μl of ^3 H-Oxotremorine (1.0 nM, final concentration) mixed and incubated for 30 min at 25° C. Non-specific binding is determined in triplicate using arecoline (1 μg/ml, final concentration) as the test substance. After incubation samples are added 5 ml of ice-cold buffer and poured directly onto Whatman GF/C glass fibre filters under suction and immediately washed 2 times with 5 ml of ice-cold buffer. The amount of radioactivity on the filters are determined by conventional liquid scintillation counting. Specific binding is total binding minus non specific binding.
Test substances are dissolved in 10 ml water (if necessary heated on a steam bath for less than 5 minutes) at a concentration of 2.2 mg/ml.
The test value will be given as IC50 (the concentration (ng/ml) of the test substance which inhibits the specific binding of ^3 H-Oxo by 50%).
IC50 =(applied test substance concentration) [formula] where Co is specific binding in control assays and Cx is the specific binding in the test assay. (The calculations assume normal mass-action kinetics).
As to `c1ccc(CSc2nsnc2[C@H]2CN3CCC[C@@H]2C3)cc1` (relative stereo) [Compound 88, Endo-6-(3-benzylthio-1,2,5-thiadiazol-4-yl)-1-azabicyclo[3.2.1]octane oxalate], the “Inhibition in vitro OXO BINDING IC50” value was determined as 6.1 ng/mL.
As to `N#CCSc1nsnc1[C@H]1CN2CCC[C@@H]1C2` (relative stereo) [Compound 89, Endo-6-(3-cyanomethylthio-1,2,5-thiadiazol-4-yl)-1-azabicyclo[3.2.1]octane oxalate], the “Inhibition in vitro OXO BINDING IC50” value was determined as 12 ng/mL.
The same measure, in the same setting: as for `N#CCCSc1nsnc1[C@H]1CN2CCC[C@@H]1C2` (relative stereo) [Compound 90, Endo-6-(3-(2-cyanoethylthio)-1,2,5-thiadiazol-4-yl)-1-azabicyclo[3.2.1]octane oxalate], the figure is 3.3 ng/mL; as for `N#CCCCSc1nsnc1[C@H]1CN2CCC[C@@H]1C2` (relative stereo) [Compound 91, Endo-6-(3-(3-cyanopropylthio)-1,2,5-thiadiazol-4-yl)-1-azabicyclo[3.2.1]octane oxalate], 5.2 ng/mL.
Same read-out and setting: the same measure for `N#CCCCCSc1nsnc1[C@H]1CN2CCC[C@@H]1C2` (relative stereo) [Compound 92, Endo-6-(3-(4-cyanobutylthio)-1,2,5-thiadiazol-4-yl)-1-azabicyclo[3.2.1]octane oxalate]: 1.5 ng/mL; for `CCCCS(=O)(=O)c1nsnc1[C@@H]1CN2CCC[C@@H]1C2` (relative stereo) [Compound 115, Exo-6-(3-butylsulfonyl-1,2,5-thiadiazol-4-yl)-1-azabicyclo[3.2.1]octane oxalate]: 0.50 ng/mL; for `FC(F)(F)C(F)(F)C(F)(F)COc1nsnc1[C@@H]1CN2CCC[C@@H]1C2` (relative stereo) [Compound 116, Exo-6-(3-(2,2,3,3,4,4,4-heptafluorobutyloxy)-1,2,5-thiadiazol-4-yl)-1-azabicyclo[3.2.1]octane oxalate]: 1.4 ng/mL.
Same read-out and setting: as for `COc1nsnc1[C@@H]1CN2CCC[C@@H]1C2` (relative stereo) [Compound 117, Exo-6-(3-methoxy-1,2,5-thiadiazol-4-yl)-1-azabicyclo[3.2.1]octane oxalate], the figure is 2.0 ng/mL; as for `CCOc1nsnc1[C@@H]1CN2CCC[C@@H]1C2` (relative stereo) [Compound 118, Exo-6-(3-ethoxy-1,2,5-thiadiazol-4-yl)-1-azabicyclo[3.2.1]octane oxalate], 0.35 ng/mL.
Turning to `CCCOc1nsnc1[C@@H]1CN2CCC[C@@H]1C2` (relative stereo) [Compound 119, Exo-6-(3-propoxy-1,2,5-thiadiazol-4-yl)-1-azabicyclo[3.2.1]octane oxalate], the “Inhibition in vitro OXO BINDING IC50” value was 0.30 ng/mL.
`CCCCOc1nsnc1[C@@H]1CN2CCC[C@@H]1C2` (relative stereo) [Compound 120, Exo-6-(3-butoxy-1,2,5-thiadiazol-4-yl)-1-azabicyclo[3.2.1]octane oxalate]: the “Inhibition in vitro OXO BINDING IC50” value amounted to 0.28 ng/mL.
Same read-out and setting: as for `CCCCCOc1nsnc1[C@@H]1CN2CCC[C@@H]1C2` (relative stereo) [Compound 121, Exo-6-(3-pentyloxy-1,2,5-thiadiazol-4-yl)-1-azabicyclo[3.2.1]octane oxalate], the figure is 0.32 ng/mL.
As for `CCCCCCOc1nsnc1[C@@H]1CN2CCC[C@@H]1C2` (relative stereo) [Compound 122, Exo-6-(3-hexyloxy-1,2,5-thiadiazol-4-yl)-1-azabicyclo[3.2.1]octane oxalate], the “Inhibition in vitro OXO BINDING IC50” value came to 0.67 ng/mL.
On the same count and under the same terms, the same measure for `CC(C)CCCOc1nsnc1[C@@H]1CN2CCC[C@@H]1C2` (relative stereo) [Compound 123, Exo-6-(3-isohexyloxy-1,2,5-thiadiazol-4-yl)-1-azabicyclo[3.2.1]octane dioxalate]: 0.47 ng/mL.
The same measure, in the same setting: as for `c1ccc(OCCSc2nsnc2[C@H]2CN3CCC[C@H]2C3)cc1` (relative stereo) [Compound 133, Exo-6-(3-(2-phenoxyethylthio)-1,2,5-thiadiazol-4-yl)-1-azabicyclo[3.2.1]octane oxalate], the figure is 0.45 ng/mL.
Consider `c1ccc(CSc2nsnc2[C@H]2CN3CCC[C@H]2C3)cc1` (relative stereo) [Compound 134, Exo-6-(3-benzylthio-1,2,5-thiadiazol-4-yl)-1-azabicyclo[3.2.1]octane oxalate], for which the “Inhibition in vitro OXO BINDING IC50” value turned out to be 0.47 ng/mL.
On the same count and under the same terms, the same measure for `CCCCSc1nsnc1C1CN2CCC1CC2.O=C(O)C(O)C(O)C(=O)O` (single isomer, unassigned) [Compound 56, (+) 3-(3-Butylthio-1,2,5-thiadiazol-4-yl)-1-azabicyclo[2.2.2]octane (-)D-tartrate]: 0.14 ng/mL; for `CCCCSc1nsnc1[C@@H]1CN2CCC[C@@H]1C2` (single isomer, unassigned) [Compound 111, (+)-Exo-6-(3-butylthio-1,2,5-thiadiazol-4-yl)-1-azabicyclo[3.2.1]octane (+) L-tartrate]: 0.32 ng/mL; for `CCCCSc1nsnc1[C@@H]1CN2CCC[C@@H]1C2` (single isomer, unassigned) [Compound 112, (-)-Exo-6-(3-butylthio-1,2,5-thiadiazol-4-yl)-1-azabicyclo[3.2.1]octane (-) D-tartrate]: 0.19 ng/mL.
As to `CCCSc1nsnc1[C@@H]1CN2CCC[C@@H]1C2` (single isomer, unassigned) [Compound 113, (+)-Exo-6-(3-propylthio-1,2,5-thiadiazol-4-yl)-1-azabicyclo[3.2.1]octane (+) L-tartrate], the “Inhibition in vitro OXO BINDING IC50” value was determined as 0.26 ng/mL.
With `CCCSc1nsnc1[C@@H]1CN2CCC[C@@H]1C2` (single isomer, unassigned) [Compound 114, (-)-Exo-6-(3-propylthio-1,2,5-thiadiazol-4-yl)-1-azabicyclo[3.2.1]octane (-) D-tartrate], the “Inhibition in vitro OXO BINDING IC50” value was determined as 0.15 ng/mL.
Still for that read-out and setting: as for `FC(F)(F)CCCSc1nsnc1[C@@H]1CN2CCC[C@@H]1C2` (single isomer, unassigned) [Compound 130, (+)-Exo-6-(3-(4,4,4-trifluoro-1-butylthio)-1,2,5-thiadiazol-4-yl)-1-azabicyclo[3.2.1]octane oxalate], the figure is 0.60 ng/mL.
Still for that read-out and setting: the same measure for `Clc1nsnc1C1(Cl)CN2CCC1CC2.O=C(O)C(=O)O` (centres unmarked) [Compound 1, 3-Chloro-3-(3-chloro-1,2,5-thiadiazol-4-yl)-1-azabicyclo[2.2.2]-octane oxalate]: 156 ng/mL; for `O=C(O)C(=O)O.OC1(c2nsnc2Cl)CN2CCC1CC2` (centres unmarked) [Compound 2, 3-(3-Chloro-1,2,5-thiadiazol-4-yl)-3-hydroxy-1-azabicyclo[2.2.2]octane oxalate]: 270 ng/mL; for `COc1nsnc1C1(OC)CN2CCC1CC2.O=C(O)C(=O)O` (centres unmarked) [Compound 3, 3-Methoxy-3-(3-methoxy-1,2,5-thiadiazol-4-yl)-1-azabicyclo[2.2.2]octane oxalate]: 208 ng/mL.
Still for that read-out and setting: as for `COc1nsnc1C1=CN2CCC1CC2.O=C(O)C(=O)O` [Compound 4, 3-(3-Methoxy-1,2,5-thiadiazol-4-yl)-1-azabicyclo[2.2.2]oct-2-ene oxalate], the figure is 21 ng/mL; as for `CCCCCCOc1nsnc1C1=CN2CCC1CC2.O=C(O)C(=O)O` [Compound 5, 3-(3-Hexyloxy-1,2,5-thiadiazol-4-yl)-1-azabicyclo[2.2.2]oct-2-ene oxalate], 18 ng/mL; as for `CCCCCCOc1nsnc1C1(OCCCCCC)CN2CCC1CC2.O=C(O)C(=O)O` (centres unmarked) [Compound 6, 3-Hexyloxy-3-(3-hexyloxy-1,2,5-thiadiazol-4-yl)-1-azabicyclo[2.2.2]octane oxalate], more than 300 ng/mL.

Staying with this assay, now noted: rat cortex homogenate, 3H-Oxotremorine 1.0 nM, 30 min at 25° C., pH 7.4; L-tartrate.
For the molecule `CCCCSc1nsnc1C1CN2CCC1CC2.O=C(O)C(O)C(O)C(=O)O` (single isomer, unassigned) [Compound 55, (-) 3-(3-Butylthio-1,2,5-thiadiazol-4-yl)-1-azabicyclo[2.2.2]octane (+) L-tartrate], the “Inhibition in vitro OXO BINDING IC50” value was 0.43 ng/mL.
